In patent publication US20240307500A1, “SUSTAINED RELEASE FORMULATION COMPOSITION COMPRISING SEMAGLUTIDE OR PHARMACEUTICALLY ACCEPTABLE SALT THEREOF” (PEPTRON, INC., priority 2021, published 2024):

Tested on: SD rats
Assay: Oral glucose tolerance test (OGTT), hypoglycemic effects after single SC injection
Format: in vivo
Details: single SC 0.123 mpk semaglutide
Method: An oral glucose tolerance test (OGTT) was performed to confirm hypoglycemic effects of the sustained-release microspheres including semaglutide of the present invention. First, the experiment was conducted by dividing 8-week-old SD rats (18 rats; 6 rats in each group) into 3 groups. It was divided into a negative control group (Control), a positive control group (API) and Example 3 formulation administration group (PT403)), wherein the positive control group (API) was subcutaneously injected once with 0.123 mpk of semaglutide, and the Example 3 formulation administration group (PT403) was injected with the Example 3 formulation subcutaneously with 4 mpk.
After drug administration, total 5 OGTTs (Days 1, 7, 16, 21 and 28) were performed, and 2 g/kg of glucose was orally administered to SD rats fasted for 18 hours. Immediately after glucose administration, and after 15, 30, 60, 90, 120, and 180 minutes, blood was collected from the tail to measure blood glucose.

N^6,26-{18-[N-(17-carboxyheptadecanoyl)-L-γ-glutamyl]-10-oxo-3, 6, 12, 15-tetraoxa-9, 18-diazaoctadecanoyl}-[8-(2-amino-2-propanoic acid), 34-L-arginine] human glucan-like peptide 1 (7-37) [API]
hypoglycemic effects (in words): returned to normal on the 7th day
